This is an account of results in patent US4201843A, “Process for manufacturing tylosin derivatives” (Sanraku Ocean Co., Ltd., priority 1975, dated 1980).

The test system of series [1] is Streptococcus pyogenes MH 771. The series is described as follows: minimum growth-inhibitory concentration. The format is cell-based. Particulars: MH771, read-out: minimum growth-inhibitory concentration (MIC). As for the experimental part:
(§1) The antimicrobial spectra of new tylosin derivatives of this invention are shown in Table 2 by listing the minimum growth inhibitory concentrations (MIC, mcg/ml). […] The toxicity of these compounds was tested in animals by intravenous administration, and the LD50 values in mice are more than 400 mg/kg with all compounds. In therapeutical experiments with mice manually infected by Staphilococcus aureus SMITH, the ED50 values were less than 50 mg/kg (p.o.) with all said tylosin derivatives.
(broth-dilution method)
(§2) The strains marked * in Table 2 are the drug resistant strains isolated from patients, namely, Staphilococcus aureus MS-9610 which is resistant to penicillin, tetracycline, erythromycin, leucomycin, spiramycin, josamycin and tylosin, Staphilococcus aureus MS-8710 which is resistant to penicillin, tetracycline, erythromycin, leucomycin and tylosin, and Streptococcus pyogenes MH 771 which is resistant to erythromycin, oleandomycin, leucomycin and tylosin.

Series [2] in a line: basicity of the compounds (alkalinity). The format is physicochemical. From the text:
(§3) The physicochemical analysis and deterimations included elementary analysis, melting point, specific rotatory power, ultraviolet spectrum, infrared spectrum, magnetic nuclear resonance (NMR), C^13 -NMR, mass spectrum (chemical ionization), the release of organic acids under alkaline conditions (gas chromatographical detection), solubility in solvents, color development reaction, basicity of the compounds, appearance and crystalline form. The molecular weight was obtained as QM^+ (Quasi Molecular ion) by chemically-ionized mass spectra analysis.
(§4) (2) the crystals obtained from the solvents in (13) were used for the tests in (1)-(12), and […]

Series [3] has as its system Staphylococcus aureus FAD209P. Put plainly: minimum growth-inhibitory concentration. The format is cell-based. The note with it: read-out: minimum growth-inhibitory concentration (MIC). As for the experimental part: as §1
For series [4], the system named is Staphylococcus aureus SMITH. Put plainly: minimum growth-inhibitory concentration. The format is cell-based. The method, then:
as §1

In another series the test system is Micrococcus flavus I. The series is described as follows: minimum growth-inhibitory concentration. The format is cell-based. As for the experimental part:
as §1

The subject of the next series is Sarcina lutea ATCC 9341. The series is described as follows: minimum growth-inhibitory concentration. The format is cell-based. Particulars: Micrococcus luteus, ATCC9341. The method, then:
as §1

Series [5] has as its system Candida albicans IAM 4905. Put plainly: minimum growth-inhibitory concentration. The format is cell-based. Particulars: IAM4905. As for the experimental part:
as §1

Series [6] has as its system Escherichia coli (National Institute of Health). The series is described as follows: minimum growth-inhibitory concentration. The format is cell-based. As for the experimental part:
as §1

The subject of series [7] is Corynebacterium bovis 1810. The series is described as follows: minimum growth-inhibitory concentration. The format is cell-based. As for the experimental part: as §1
For series [8], the system named is Proteus morganii (The Institute for Infectious Diseases). Put plainly: minimum growth-inhibitory concentration. The format is cell-based. The note with it: Morganella morganii. The method, then: as §1
Series [9] deals with Bacillus megaterium NRRL B-938. The series is described as follows: minimum growth-inhibitory concentration. The format is cell-based. Particulars: Priestia megaterium, NRRLB938. The method, then: as §1
In series [10] the test system is Bacillus subtilis ATCC 6633. Put plainly: minimum growth-inhibitory concentration. The format is cell-based. Particulars: ATCC6633. The method, then:
as §1

The subject of series [11] is Pseudomonas fluorescens NIHJB 254. The series is described as follows: minimum growth-inhibitory concentration. The format is cell-based. Particulars: NIHJB254. The method, then:
as §1

The subject of series [12] is Mycobacterium smegmatis ATCC 607. The series is described as follows: minimum growth-inhibitory concentration. The format is cell-based. Particulars: Mycolicibacterium smegmatis, ATCC607. As for the experimental part: as §1
Series [13] has as its system Bacillus cereus ATCC 9634. The series is described as follows: minimum growth-inhibitory concentration. The format is cell-based. The note with it: ATCC9634. The method, then:
as §1

Series [14] deals with Candida tropicalis IAM 4924. The series is described as follows: minimum growth-inhibitory concentration. The note with it: IAM4924. The format is cell-based. The method, then: as §1
Series [15] concerns Staphylococcus aureus MS 8710. Put plainly: minimum growth-inhibitory concentration. The format is cell-based. Particulars: MS8710; Staphylococcus aureus MS 8710, drug resistant strain. As for the experimental part: as §1, §2
The test system of series [16] is Staphylococcus aureus MS 9610. The series is described as follows: minimum growth-inhibitory concentration. The format is cell-based. Particulars: MS9610; Staphylococcus aureus MS 9610, drug resistant strain. As for the experimental part:
as §1, §2

The test system of another series is drug resistant strains. The series is described as follows: antimicrobial activity against drug resistant strains. The format is cell-based. Particulars: strains marked * in Table 2.
From the text: One of the particular advantages of the said tylosin derivatives over known macrolide antibiotics is their distinct antimicrobial activity against drug resistant bacteria.
as §2

A short description of the next series: solubility in solvents. The format is physicochemical. The note with it: for solubility in lower alcohols, ketones, ethers, esters, benzene and toluene: e.g. ethanol, acetone, ethyl ether, ethyl acetate.
From the text: as §3, §4

On the set-up of series [17]: species or system mice. Particulars: mouse, in vivo, po, 100 mg/kg. As for the experimental part: Another phase of advantages of the said tylosin derivatives is their high blood levels in animals. When each of these compounds is orally administered to mice in a dose of 100 mg/kg, their concentrations in blood were measured to be 5-20 mcg/ml, a substantially high value compared to that of tylosin (<1 mcg/ml). […] Their concentrations in blood one hour after administration reached up to 15-20 mcg/ml.

For series [18] the following is noted: electrometric determination in dimethyl formamide-H2O=2:1 by volume; Japanese Patent (Kokoku) Showa No. 36-22649; cited from earlier work.

Converted amounts (≈) assume the structure as drawn. Where only a bound is given, the exact number is not on record here.

Take `CCC(=O)OC1CC(=O)OC(CC)C(COC2OC(C)C(O)C(OC)C2OC)C=C(C)C=CC(=O)C(C)CC(CC=O)C(OC2OC(C)C(OC3CC(C)(O)C(OC(=O)CC(C)C)C(C)O3)C(N(C)C)C2O)C1C` (stereo not shown) [3-propionyl-4"-isovaleryltylosin]: the MIC in [1] was 3.91 µg/mL (≈ 3.7 µM); in series [3], 0.49 µg/mL (≈ 0.464 µM); in series [4], 1.95 µg/mL (≈ 1.85 µM); against Micrococcus flavus I, 0.49 µg/mL (≈ 0.464 µM); with Sarcina lutea ATCC 9341 it was 0.25 µg/mL (≈ 0.237 µM); in series [5], more than 250 µg/mL. The MIC was 250 µg/mL (≈ 237 µM) in series [6]; 1 µg/mL (≈ 0.947 µM) in [7]; more than 250 µg/mL in [8]; 0.49 µg/mL (≈ 0.464 µM) in series [9]; 0.49 µg/mL (≈ 0.464 µM) in [10]; more than 250 µg/mL in [11]. Moreover, the MIC was 3.91 µg/mL (≈ 3.7 µM) in series [12]; 0.98 µg/mL (≈ 0.928 µM) in [13]; more than 250 µg/mL in series [14]; 15.6 µg/mL (≈ 14.8 µM) in series [15]; 62.5 µg/mL (≈ 59.2 µM) in series [16]. The alkalinity result in [2] is reported as “alkaline compounds”. Further, in the series on drug resistant strains, the “antimicrobial activity against a wide range of drug resistant strains” value (from here on “antimicrobial activity”) is recorded as “particularly strong antimicrobial activity”. Also, the “solubility in acidic water” value in the series “solubility in solvents” was “soluble”. Besides, the “solubility in alkaline water” value in “solubility in solvents” was “hardly soluble”. Moreover, the “solubility in lower alcohols, ketones, ethers, esters, benzene and toluene” value (“solubility in lower alcohols, ketones” for short) in “solubility in solvents” is recorded as “soluble”. Moreover, the “solubility in n-hexane and petroleum ether” value in the series “solubility in solvents” is on record as “hardly soluble”. In addition, the “solubility in neutral water” value in the series “solubility in solvents” is reported as “slightly soluble”.
Take `CCC1OC(=O)CC(O)C(C)C(OC2OC(C)C(OC3CC(C)(O)C(OC(=O)CC(C)C)C(C)O3)C(N(C)C)C2O)C(CC=O)CC(C)C(=O)/C=C/C(C)=C/C1COC1OC(C)C(O)C(OC)C1OC` (stereo not shown) [4"-isovaleryltylosin]: the MIC in series [1] is 7.8 µg/mL (≈ 7.8 µM); in [3], 0.49 µg/mL (≈ 0.49 µM); in [4], 0.25 µg/mL (≈ 0.25 µM); in the series on Micrococcus flavus I it was 0.25 µg/mL (≈ 0.25 µM); in the series on Sarcina lutea ATCC 9341, less than 0.12 µg/mL; in series [5], more than 250 µg/mL. The MIC was 125 µg/mL (≈ 125 µM) in series [6]; 0.5 µg/mL (≈ 0.5 µM) in [7]; more than 250 µg/mL in series [8]; 0.98 µg/mL (≈ 0.98 µM) in series [9]; 0.49 µg/mL (≈ 0.49 µM) in [10]; more than 250 µg/mL in [11]. In addition, the MIC in series [12] is 3.91 µg/mL (≈ 3.91 µM); in series [13], 0.98 µg/mL (≈ 0.98 µM); in series [14], more than 250 µg/mL; in [15] it was 15.6 µg/mL (≈ 15.6 µM); in series [16] it was 62.5 µg/mL (≈ 62.5 µM). Moreover, in series [2], the alkalinity result is given as “alkaline compounds”. The “antimicrobial activity” value with drug resistant strains was “particularly strong antimicrobial activity”. In addition, the “solubility in acidic water” value in the series “solubility in solvents” is “soluble”. For the same molecule, the “solubility in alkaline water” value in “solubility in solvents” was “hardly soluble”. Further, the “solubility in lower alcohols, ketones” value in “solubility in solvents” is “soluble”. In addition, the “solubility in n-hexane and petroleum ether” value in the series “solubility in solvents” was “hardly soluble”. The “solubility in neutral water” value in the series “solubility in solvents” is recorded as “slightly soluble”.
The molecule `CC[C@H]1OC(=O)C[C@@H](O)[C@H](C)[C@@H](O[C@@H]2O[C@H](C)[C@@H](O[C@H]3C[C@@](C)(O)[C@@H](O)[C@H](C)O3)[C@H](N(C)C)[C@H]2O)[C@@H](CC=O)C[C@@H](C)C(=O)/C=C/C(C)=C/[C@@H]1CO[C@@H]1O[C@H](C)[C@@H](O)[C@@H](OC)[C@H]1OC` [tylosin] yielded a concentration in blood in series [17] of less than 1000 ng/mL. The MIC was 250 µg/mL (≈ 273 µM) in [1]; 0.49 µg/mL (≈ 0.535 µM) in series [3]; 0.25 µg/mL (≈ 0.273 µM) in [4]; 0.12 µg/mL (≈ 0.131 µM) in the series with Micrococcus flavus I; 0.12 µg/mL (≈ 0.131 µM) in the series on Sarcina lutea ATCC 9341; more than 250 µg/mL in series [5]. The MIC in series [6] is 250 µg/mL (≈ 273 µM); in [7], 0.5 µg/mL (≈ 0.546 µM); in series [8], more than 250 µg/mL; in series [9] it was 0.25 µg/mL (≈ 0.273 µM); in series [10], 0.49 µg/mL (≈ 0.535 µM); in series [11], more than 250 µg/mL. In addition, the MIC in [12] was 7.81 µg/mL (≈ 8.53 µM); in [13], 0.49 µg/mL (≈ 0.535 µM); in series [14], more than 250 µg/mL; in series [15], more than 250 µg/mL; in series [16], more than 250 µg/mL.
For `CCCC(=O)OC1C(C)OC(OC2C(C)OC(OC3C(CC=O)CC(C)C(=O)/C=C/C(C)=C/C(COC4OC(C)C(O)C(OC)C4OC)C(CC)OC(=O)CC(O)C3C)C(O)C2N(C)C)CC1(C)O` (stereo not shown) [4"-n-butyryltylosin], the MIC was 15.6 µg/mL (≈ 15.8 µM) in [1]; 0.25 µg/mL (≈ 0.253 µM) in [3]; 0.25 µg/mL (≈ 0.253 µM) in series [4]; 0.49 µg/mL (≈ 0.497 µM) in the series on Micrococcus flavus I; 0.25 µg/mL (≈ 0.253 µM) with Sarcina lutea ATCC 9341; more than 250 µg/mL in series [5]. The MIC in [6] is 125 µg/mL (≈ 127 µM); in [7] it was 0.98 µg/mL (≈ 0.994 µM); in series [8], more than 250 µg/mL; in [9], 0.49 µg/mL (≈ 0.497 µM); in series [10], 0.49 µg/mL (≈ 0.497 µM); in series [11], more than 250 µg/mL. Also, the MIC in series [12] is 3.91 µg/mL (≈ 3.96 µM); in [13], 0.98 µg/mL (≈ 0.994 µM); in series [14] it was more than 250 µg/mL; in series [15], 62.5 µg/mL (≈ 63.4 µM); in series [16], more than 250 µg/mL. Moreover, in [2], the alkalinity entry is reported as “alkaline compounds”. For the same molecule, in the series on drug resistant strains, the “antimicrobial activity” value is “particularly strong antimicrobial activity”. For the same molecule, the “solubility in acidic water” value in “solubility in solvents” is “soluble”. Further, in the series “solubility in solvents”, the “solubility in alkaline water” value was “hardly soluble”. For the same molecule, the “solubility in lower alcohols, ketones” value in the series “solubility in solvents” was “soluble”. In addition, the “solubility in n-hexane and petroleum ether” value in “solubility in solvents” is reported as “hardly soluble”. Moreover, the “solubility in neutral water” value in the series “solubility in solvents” is “slightly soluble”.
On to tylosin acetyl ester, for which the pk value result in series [18] was “about 5.1”.
